Results reported in PubChem BioAssay AID720513 (Broad Institute, 2013).
Records with an inconclusive call do not appear.

test system: U2OS PGC1a acetylation AlphaLISA, overnight; assay: PGC1a acetylation increase, cellular AlphaLISA – cell-based, cherry-picked samples, set 6, dose response (AID 720513);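 also: cells made to overexpress flag tagged PGC1a plus GCN5 acetyltransferase by viral infection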

Structure (SMILES)	AC40
O=S(=O)(c1ccc(Cl)cc1)N1[C@@H]2CNC[C@H]1C2c1ccc(-c2cccc(F)c2)cc1 (stereo not given in full)	< 2.6 µM
COc1cccc(C(=O)c2c[nH]c(C(=O)NCc3cccnc3)c2)c1	1.4 µM
Cc1cc(C)nc(NC(=O)c2c(-c3ccccc3Cl)noc2C)n1	16.8 µM
O=C(CSc1nc2ccccc2c(=O)n1CC1CCCO1)N1CCN(c2ccccc2)CC1 (stereo not given)	18.6 µM
COC(=O)c1c(NC(=O)COC(=O)[C@@H](NS(=O)(=O)c2ccccc2)C(C)C)sc2c1CCC2	13.5 µM
OCCNc1nc(N2CCCCC2)nc2ccccc12	18.1 µM
CCOC(=O)c1oc2ccc(S(=O)(=O)N3CCC(C)CC3)cc2c1C	17.1 µM
C=CCn1c(SCC(=O)NC(=O)NCc2ccco2)nc2sc(CC)cc2c1=O	11.3 µM
C[C@@H](c1ccccc1)N1Cc2ccccc2Oc2cc(Br)ccc2S1(=O)=O	14.3 µM
COc1ccc(Cn2nnnc2C(C(C)C)N(Cc2ccco2)Cc2cccs2)cc1 (stereo not given)	2.6 µM
O=S(=O)(c1ccccc1)N(CC(F)(F)F)c1ccc(C(O)(C(F)(F)F)C(F)(F)F)cc1	6.8 µM
COc1ccc(OC)c(C(=O)/C=C/c2ccccc2C(F)(F)F)c1	8.62 µM
COc1cccc(-c2ccc(C3[C@@H]4CN(S(=O)(=O)c5cccc(OC)c5)C[C@H]3N4)cc2)c1 (stereo not given in full)	10.5 µM
CC(C)NC(=O)Nc1ccc2c(c1)C(=O)N([C@@H](C)CO)C[C@@H](C)[C@@H](CN(C)S(=O)(=O)c1ccccc1)OCCCC[C@H](C)O2	14.8 µM
O=C(CCn1nnc2ccccc21)Nc1nnc(Cc2ccccc2)s1	4.36 µM
CC(C)c1ccc(NC(=O)c2ccc3c(c2)CCN3S(C)(=O)=O)cc1	13.9 µM
C[C@@H]1CN([C@@H](C)CO)C(=O)c2c(c3ccccc3n2C)-c2ccccc2CO[C@@H]1CN(C)C(=O)Nc1ccc2c(c1)OCO2	7.87 µM
CCN(CC)CC(=O)N1c2ccccc2CCc2ccc(NC(=O)c3cc(OC)c(OC)c(OC)c3)cc21	8.84 µM
Cc1ccc2[nH]c(=O)c(CN(Cc3ccc4c(c3)OCO4)Cc3nnnn3C3CCCC3)cc2c1	7.98 µM
O=C(CCCCCN1C(=O)c2cccc3cccc(c23)C1=O)NCc1cccnc1	0.207 µM
COc1ccc(S(=O)(=O)N2CCOCC2)cc1NC(=O)CCNC(=O)c1ccc([N+](=O)[O-])cc1	< 0.3 µM
N#Cc1ccccc1S(=O)(=O)N1CCN(Cc2cc3c(cc2Br)OCCO3)CC1	0.934 µM
Cc1cc(C(F)(F)F)n(-c2nc(C(=O)NNS(=O)(=O)c3ccccc3[N+](=O)[O-])cs2)n1	3.43 µM
Cc1ccc(O)c(C(=O)c2cnc3c(c2)CN(CCC(C)C)C(=O)N3)c1	10.2 µM
CCOc1ccc(NC(=O)CN2CCC(n3cnc4cc(F)ccc43)CC2)cc1	2.84 µM

Structure (SMILES)	AC40
COc1cc(-c2cnc3c(NC(C)=O)cc(-c4ccccc4CN(C)C)cn23)cc(OC)c1OC	8.19 µM
C[C@@H]1CN([C@H](C)CO)C(=O)c2c(c3ccccc3n2C)-c2ccccc2CO[C@@H]1CN(C)C(=O)c1ccccc1	5.94 µM
CCN(CC)c1ccc(NC(=O)c2cc(OC)cc(OC)c2)c(C)c1	12.3 µM
Cc1ccc(S(=O)(=O)N2CCN(S(=O)(=O)c3ccc(C)cc3)C2c2ccccc2)cc1	2.7 µM
CC(C)(C)c1ccc(NC(=O)N2CCN(c3ccc([N+](=O)[O-])cn3)CC2)cc1	< 0.16 µM
COc1ccc(Nc2nnc(C)c3ccccc23)cc1	5.12 µM
C[C@H](CO)N1C[C@H](C)[C@H](CN(C)Cc2ccc(C(=O)Nc3ccccc3N)cc2)Oc2c(NC(=O)c3ccncc3)cccc2C1=O	12 µM
CC(=O)c1ccc(N2CCN(C(=O)C(=O)c3c(C)[nH]c4ccccc34)CC2)cc1	0.996 µM
CC(Sc1nc2ccccc2s1)C(=O)NC1CCCc2ccccc21 (stereo not given)	12.4 µM
O=C(c1ccccc1)c1nn(-c2ccc(Cl)cc2)c(=O)cc1C(F)(F)F	0.451 µM
CCC(C)(C)n1nnnc1C(c1ccccc1OC)N1CCSCC1 (stereo not given)	1.45 µM
COc1cccc(-c2ccc(C3[C@@H]4CN(Cc5ccccn5)C[C@H]3N4)cc2)c1 (stereo not given in full)	13.5 µM
C[C@@H]1CN([C@H](C)CO)C(=O)c2c(c3ccccc3n2C)-c2ccccc2CO[C@@H]1CN(C)C(=O)Nc1ccccc1C(F)(F)F	3.71 µM
Cc1csc(NC(=O)NC2(C(F)(F)F)Oc3ccccc3O2)n1	6.24 µM
Cc1cccc2sc(N3CCN(C(=O)c4cccs4)CC3)nc12	16.7 µM
COc1ccc(C#Cc2cnc3c(c2)C(=O)N([C@H](C)CO)C[C@H](C)[C@H](CN(C)S(=O)(=O)c2cccs2)O3)cc1OC	18.2 µM
Cc1ccc(NC(=O)c2sccc2SCc2cccc(C(F)(F)F)c2)cc1	5.13 µM
CC1CN(S(=O)(=O)c2ccc(C(=O)NCCCn3ccnc3)cc2)CC(C)O1 (stereo not given)	0.246 µM
Cc1cc2c(cc1S(=O)(=O)N1CCc3ccccc31)NC(=O)CO2	2.18 µM
COc1ccc(N(C(=O)c2snc(C(N)=O)c2N)C(C(=O)NC2CCCCC2)c2ccc(F)cc2)c(OC)c1 (stereo not given)	3.26 µM
COc1ccc(-c2csc3nc(C)nc(N4CCC(C)CC4)c23)cc1OC	3.8 µM
CC(=O)c1ccc(N2CCN(c3ccc(S(=O)(=O)NCCCN(C)C)cc3[N+](=O)[O-])CC2)cc1	1.22 µM
C[C@@H]1CN([C@@H](C)CO)C(=O)c2c(c3ccccc3n2C)-c2ccccc2CO[C@@H]1CN(C)C(=O)Oc1ccccc1	7.26 µM
CCCCC(=O)Nc1ccc(NC(=O)c2cccs2)cn1	18.9 µM
C[n+]1c2n(c3ccccc31)N=C(c1cc(C(C)(C)C)c(O)c(C(C)(C)C)c1)CS2	3.5 µM
